Test system: 485368-065-R3-J5-PDC spheroids with HUVEC/MSC, viability
Experiment: Anticancer human tumor 485368-065-R3-J5-PDC patient-derived pancreatic carcinoma cell line growth inhibition [RAS]
Conditions: for IC50: curve of first compound; for viability, T/C: stronger effect = lower value
Summary of the method: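 Tumour cells grown as complex spheroids with HUVEC endothelial cells and mesenchymal stem cells, treated with RAS pathway inhibitor combinations. Each agent spans half-log steps from near clinical Cmax, or 10 microM where Cmax is unknown.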

[1] = second compound 0.000949 µM, first compound 0.00316 µM
[2] = second compound 0.000949 µM, first compound 0.01 µM
[3] = second compound 0.000949 µM, first compound 0.0316 µM
[4] = second compound 0.000949 µM, first compound 0.1 µM
[5] = second compound 0.003 µM, first compound 0.00316 µM
[6] = second compound 0.003 µM, first compound 0.01 µM
[7] = second compound 0.003 µM, first compound 0.0316 µM
[8] = second compound 0.003 µM, first compound 0.1 µM
[9] = second compound 0.00949 µM, first compound 0.00316 µM
[10] = second compound 0.00949 µM, first compound 0.01 µM
[11] = second compound 0.00949 µM, first compound 0.0316 µM
[12] = second compound 0.00949 µM, first compound 0.1 µM
[13] = second compound 0.03 µM, first compound 0.00316 µM
[14] = second compound 0.03 µM, first compound 0.01 µM
[15] = second compound 0.03 µM, first compound 0.0316 µM
[16] = second compound 0.03 µM, first compound 0.1 µM
[17] = second compound 0.0949 µM, first compound 0.00316 µM
[18] = second compound 0.0949 µM, first compound 0.01 µM
[19] = second compound 0.0949 µM, first compound 0.0316 µM
[20] = second compound 0.0949 µM, first compound 0.1 µM
[21] = second compound 0.3 µM, first compound 0.00316 µM
[22] = second compound 0.3 µM, first compound 0.01 µM
[23] = second compound 0.3 µM, first compound 0.0316 µM
[24] = second compound 0.3 µM, first compound 0.1 µM
[25] = second compound 0.000949 µM, first compound 0.316 µM
[26] = second compound 0.000949 µM, first compound 1 µM
[27] = second compound 0.003 µM, first compound 0.316 µM
[28] = second compound 0.003 µM, first compound 1 µM
[29] = second compound 0.00949 µM, first compound 0.316 µM
[30] = second compound 0.00949 µM, first compound 1 µM
[31] = second compound 0.03 µM, first compound 0.316 µM
[32] = second compound 0.03 µM, first compound 1 µM
[33] = second compound 0.0949 µM, first compound 0.316 µM
[34] = second compound 0.0949 µM, first compound 1 µM
[35] = second compound 0.3 µM, first compound 0.316 µM
[36] = second compound 0.3 µM, first compound 1 µM
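Further: spheroids exposed to agents for seven days before readout.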

## CC(C)n1nc(-c2ccc3oc(N)nc3c2)c2c(N)ncnc21 + CCn1c(-c2cccnc2C(C)OC)c2c3cc(ccc31)N1CCOC(CC(NC(=O)C(C(C)C)N(C)C(=O)C3(F)CCN(C(=O)C#CC(C)(C)N(C)C)CC3)C(=O)N3CCCC(N3)C(=O)OCC(C)(C)C2)C1
Second compound 0.000949 µM
  IC50: 0.0217 µM
Second compound 0.003 µM
  IC50: 0.0191 µM
Second compound 0.00949 µM
  IC50: 0.0199 µM
Second compound 0.03 µM
  IC50: 0.0217 µM
Second compound 0.0949 µM
  IC50: 0.0212 µM
Second compound 0.3 µM
  IC50: 0.0256 µM
Second compound 0.000949 µM, first compound 0.000316 µM
  viability, T/C: 93.8%
Second compound 0.000949 µM, first compound 0.001 µM
  viability, T/C: 107%
[1]
  viability, T/C: 84.2%
[2]
  viability, T/C: 73.4%
[3]
  viability, T/C: 38.8%
[4]
  viability, T/C: 21.2%
Second compound 0.003 µM, first compound 0.000316 µM
  viability, T/C: 97.6%
Second compound 0.003 µM, first compound 0.001 µM
  viability, T/C: 97.3%
[5]
  viability, T/C: 85.6%
[6]
  viability, T/C: 66.8%
[7]
  viability, T/C: 37.2%
[8]
  viability, T/C: 19.4%
Second compound 0.00949 µM, first compound 0.000316 µM
  viability, T/C: 88.2%
Second compound 0.00949 µM, first compound 0.001 µM
  viability, T/C: 115%
[9]
  viability, T/C: 85.9%
[10]
  viability, T/C: 66.6%
[11]
  viability, T/C: 40.2%
[12]
  viability, T/C: 19.4%
Second compound 0.03 µM, first compound 0.000316 µM
  viability, T/C: 92%
Second compound 0.03 µM, first compound 0.001 µM
  viability, T/C: 96.3%
[13]
  viability, T/C: 96.2%
[14]
  viability, T/C: 78.1%
[15]
  viability, T/C: 36.4%
[16]
  viability, T/C: 22.1%
Second compound 0.0949 µM, first compound 0.000316 µM
  viability, T/C: 89.3%
Second compound 0.0949 µM, first compound 0.001 µM
  viability, T/C: 98.2%
[17]
  viability, T/C: 96.6%
[18]
  viability, T/C: 69.1%
[19]
  viability, T/C: 40.3%
[20]
  viability, T/C: 19.5%
Second compound 0.3 µM, first compound 0.000316 µM
  viability, T/C: 97.3%
Second compound 0.3 µM, first compound 0.001 µM
  viability, T/C: 99.4%
[21]
  viability, T/C: 86.9%
[22]
  viability, T/C: 75%
[23]
  viability, T/C: 43.9%
[24]
  viability, T/C: 22.4%

## CCN1CCN(Cc2ccc(Nc3ncc(F)c(-c4cc(F)c5nc(C)n(C(C)C)c5c4)n3)nc2)CC1 + CCn1c(-c2cccnc2C(C)OC)c2c3cc(ccc31)N1CCOC(CC(NC(=O)C(C(C)C)N(C)C(=O)C3(F)CCN(C(=O)C#CC(C)(C)N(C)C)CC3)C(=O)N3CCCC(N3)C(=O)OCC(C)(C)C2)C1
Second compound 0.000949 µM
  IC50: > 1 µM
Second compound 0.003 µM
  IC50: 0.639 µM
Second compound 0.00949 µM
  IC50: 0.941 µM
Second compound 0.03 µM
  IC50: 0.693 µM
Second compound 0.0949 µM
  IC50: 0.888 µM
Second compound 0.3 µM
  IC50: > 1 µM
[1]
  viability, T/C: 103%
[2]
  viability, T/C: 88.8%
[3]
  viability, T/C: 103%
[4]
  viability, T/C: 77.9%
[25]
  viability, T/C: 63.5%
[26]
  viability, T/C: 51.5%
[5]
  viability, T/C: 98.4%
[6]
  viability, T/C: 91.5%
[7]
  viability, T/C: 96.4%
[8]
  viability, T/C: 77.3%
[27]
  viability, T/C: 58.2%
[28]
  viability, T/C: 45%
[9]
  viability, T/C: 96.8%
[10]
  viability, T/C: 100%
[11]
  viability, T/C: 91.3%
[12]
  viability, T/C: 84.7%
[29]
  viability, T/C: 60.9%
[30]
  viability, T/C: 49.6%
[13]
  viability, T/C: 96.8%
[14]
  viability, T/C: 100%
[15]
  viability, T/C: 95.4%
[16]
  viability, T/C: 82.6%
[31]
  viability, T/C: 70.5%
[32]
  viability, T/C: 40.7%
[17]
  viability, T/C: 96.8%
[18]
  viability, T/C: 95.1%
[19]
  viability, T/C: 96.1%
[20]
  viability, T/C: 83.4%
[33]
  viability, T/C: 66.3%
[34]
  viability, T/C: 48%
[21]
  viability, T/C: 96.8%
[22]
  viability, T/C: 104%
[23]
  viability, T/C: 89.3%
[24]
  viability, T/C: 88.8%
[35]
  viability, T/C: 63.7%
[36]
  viability, T/C: 55.8%

## C[C@@H](NC(=O)c1ncnc(N)c1Cl)c1ncc(C(=O)Nc2cc(C(F)(F)F)c(Cl)cn2)s1 + CCn1c(-c2cccnc2C(C)OC)c2c3cc(ccc31)N1CCOC(CC(NC(=O)C(C(C)C)N(C)C(=O)C3(F)CCN(C(=O)C#CC(C)(C)N(C)C)CC3)C(=O)N3CCCC(N3)C(=O)OCC(C)(C)C2)C1
Second compound 0.000949 µM
  IC50: > 10 µM
Second compound 0.003 µM
  IC50: > 10 µM
Second compound 0.00949 µM
  IC50: > 10 µM
Second compound 0.03 µM
  IC50: > 10 µM
Second compound 0.0949 µM
  IC50: > 10 µM
Second compound 0.3 µM
  IC50: > 10 µM
[3]
  viability, T/C: 107%
[4]
  viability, T/C: 102%
[25]
  viability, T/C: 106%
[26]
  viability, T/C: 93.6%
Second compound 0.000949 µM, first compound 3.16 µM
  viability, T/C: 92.6%
Second compound 0.000949 µM, first compound 10 µM
  viability, T/C: 86.4%
[7]
  viability, T/C: 102%
[8]
  viability, T/C: 107%
[27]
  viability, T/C: 102%
[28]
  viability, T/C: 94.6%
Second compound 0.003 µM, first compound 3.16 µM
  viability, T/C: 106%
Second compound 0.003 µM, first compound 10 µM
  viability, T/C: 80.3%
[11]
  viability, T/C: 102%
[12]
  viability, T/C: 110%
[29]
  viability, T/C: 103%
[30]
  viability, T/C: 105%
Second compound 0.00949 µM, first compound 3.16 µM
  viability, T/C: 96.5%
Second compound 0.00949 µM, first compound 10 µM
  viability, T/C: 89%
[15]
  viability, T/C: 102%
[16]
  viability, T/C: 120%
[31]
  viability, T/C: 106%
[32]
  viability, T/C: 105%
Second compound 0.03 µM, first compound 3.16 µM
  viability, T/C: 107%
Second compound 0.03 µM, first compound 10 µM
  viability, T/C: 94.6%
[19]
  viability, T/C: 102%
[20]
  viability, T/C: 111%
[33]
  viability, T/C: 105%
[34]
  viability, T/C: 96.5%
Second compound 0.0949 µM, first compound 3.16 µM
  viability, T/C: 104%
Second compound 0.0949 µM, first compound 10 µM
  viability, T/C: 76.1%
[23]
  viability, T/C: 97.5%
[24]
  viability, T/C: 118%
[35]
  viability, T/C: 111%
[36]
  viability, T/C: 108%
Second compound 0.3 µM, first compound 3.16 µM
  viability, T/C: 106%
Second compound 0.3 µM, first compound 10 µM
  viability, T/C: 79.2%

Source: PubChem BioAssay AID2060902 (Molecular Pharmacology Branch, DTP, NCI, 2025)
